Patent publication US4267180A, “Novel antibacterial amide compounds and process means for producing the same” (Warner-Lambert Company, priority 1980, dated 1981)

Columns and labels:
Experiment in all cases: Minimal Inhibitory Concentration, in vitro
Type in all cases: cell-based
Design in all cases: unit not given here
[1] = test system: Enterobacter Cloacae IMM-11
Description: (§1) The compounds of the invention are new chemical compounds that are useful as pharmacological agents and especially as broad spectrum antibacterial agents. They are active in vitro against strains of both gram-positive and gram-negative bacteria.
(§2) Minimal Inhibitory Concentration

[2] = test system: Klebsiella Pneumoniae MGH-2
Description: as §1, §2

[3] = test system: Proteus Vulgaris 1810
Description: as §1, §2

[4] = test system: Pseudomonas Aeruginosa #28
Description: as §1, §2

[5] = test system: Pseudomonas Aeruginosa UI-18
Description: as §1, §2

[6] = test system: Serratia Marcescens IMM-16
Description: as §1, §2

[7] = test system: Staph Aureus UC-76
Description: as §1, §2

Row | Molecule | Minimal Inhibitory Concentration [1] | Minimal Inhibitory Concentration [2] | Minimal Inhibitory Concentration [3] | Minimal Inhibitory Concentration [4] | Minimal Inhibitory Concentration [5] | Minimal Inhibitory Concentration [6] | Minimal Inhibitory Concentration [7]
1 | CC(=O)NC(CC(C)C)C(=O)Nc1ccc(-c2ncc(C(=O)N[C@@H](C(=O)N[C@@H]3C(=O)N4[C@@H]3SC(C)(C)[C@@H]4C(=O)O)c3ccc(O)cc3)c(O)n2)cc1 (mixture of isomers) [N-Acetyl-DL-Leucyl, N-[2-[4-(N-Acetyl-DL-leucylamino)phenyl]-4-hydroxy-5-pyrimidinylcarbonyl]amoxicillin] | 25 | > 50 | 3.1 | 3.1 | 3.1 | 25 | 1.6
2 | CC(=O)N[C@@H](Cc1ccc(O)cc1)C(=O)Nc1ccc(-c2ncc(C(=O)N[C@@H](C(=O)N[C@@H]3C(=O)N4[C@@H]3SC(C)(C)[C@@H]4C(=O)O)c3ccc(O)cc3)c(O)n2)cc1 [N-Acetyl-L-Tyrosyl, N-[2-[4-(N-Acetyl-L-tyrosylamino)phenyl]-4-hydroxy-5-pyrimidinylcarbonyl]amoxicillin] | 12.5 | 50 | 3.1 | 1.6 | 3.1 | 12.5 | 1.6
3 | CC(=O)NC(C)(C)C(=O)Nc1ccc(-c2ncc(C(=O)N[C@@H](C(=O)N[C@@H]3C(=O)N4[C@@H]3SC(C)(C)[C@@H]4C(=O)O)c3ccc(O)cc3)c(O)n2)cc1 [N-Acetylamino Isobutyryl, N-[2-[4-(alpha-Acetamidoisobutyrylamino)phenyl]-4-hydroxy-5-pyrimidinylcarbonyl]amoxicillin] | 6.3 | > 50 | 0.4 | 0.8 | 0.8 | 12.5 | 1.6
4 | CC(=O)N1CCCC1C(=O)Nc1ccc(-c2ncc(C(=O)N[C@@H](C(=O)N[C@@H]3C(=O)N4[C@@H]3SC(C)(C)[C@@H]4C(=O)O)c3ccc(O)cc3)c(O)n2)cc1 (mixture of isomers) [N-Acetyl-DL-Prolyl, N-[2-[4-(N-Acetyl-DL-prolylamino)phenyl]-4-hydroxy-5-pyrimidinylcarbonyl]amoxicillin] | 12.5 | 50 | 1.6 | 1.6 | 1.6 | 12.5 | 0.8
5 | CC1(C)S[C@@H]2[C@H](NC(=O)[C@H](NC(=O)c3cnc(-c4ccc(NC(=O)[C@@H]5CCC(=O)N5)cc4)nc3O)c3ccc(O)cc3)C(=O)N2[C@H]1C(=O)O [5-Oxo-L-Prolyl, N-[2-[4-((5-oxo-L-prolyl)amino)phenyl]-4-hydroxy-5-pyrimidinylcarbonyl]amoxicillin] | 6.3 | 50 | 0.8 | 0.8 | 1.6 | 12.5 | 0.8
6 | CCC(=O)N[C@@H](C)C(=O)Nc1ccc(-c2ncc(C(=O)N[C@@H](C(=O)N[C@@H]3C(=O)N4[C@@H]3SC(C)(C)[C@@H]4C(=O)O)c3ccc(O)cc3)c(O)n2)cc1 [N-Propionyl-L-Alanyl, N-[2-[4-(N-Propionyl-L-alanylamino)phenyl]-4-hydroxy-5-pyrimidinylcarbonyl]amoxicillin] | 3.1 | 50 | 3.1 | 1.6 | 0.8 | 12.5 | 0.8
7 | CC(=O)NCCC(=O)Nc1ccc(-c2ncc(C(=O)N[C@@H](C(=O)N[C@@H]3C(=O)N4[C@@H]3SC(C)(C)[C@@H]4C(=O)O)c3ccc(O)cc3)c(O)n2)cc1 [N-Acetyl-beta-Alanyl, N-[2-[4-(N-Acetyl-beta-alanylamino)phenyl]-4-hydroxy-5-pyrimidinylcarbonyl]amoxicillin] | 6.3 | 25 | 0.8 | 0.8 | 0.8 | 6.3 | 0.4
8 | N-[2-[4-(N-Acetyl-DL-glutaminylamino)phenyl]-4-hydroxy-5-pyrimidinylcarbonyl]amoxicillin [N-Acetyl-L-Glutaminyl] | 12.5 | > 50 | 0.8 | 3.1 | 3.1 | 25 | 3.1
9 | CC1(C)S[C@@H]2[C@H](NC(=O)[C@H](NC(=O)c3cnc(-c4ccc(NC(=O)CNC(N)=O)cc4)nc3O)c3ccc(O)cc3)C(=O)N2[C@H]1C(=O)O [N-Carbamoyl Glycyl, N-[2-[4-(N-Carbamoylglycylamino)phenyl]-4-hydroxy-5-pyrimidinylcarbonyl]amoxicillin] | 25 | 50 | 3.1 | 0.8 | 1.6 | 25 | 0.8
10 | CC(=O)NC(C(=O)Nc1ccc(-c2ncc(C(=O)N[C@@H](C(=O)N[C@@H]3C(=O)N4[C@@H]3SC(C)(C)[C@@H]4C(=O)O)c3ccc(O)cc3)c(O)n2)cc1)C(C)C (mixture of isomers) [N-Acetyl-DL-Valyl, N-[2-[4-(N-Acetyl-DL-valylamino)phenyl]-4-hydroxy-5-pyrimidinylcarbonyl]amoxicillin] | 25 | > 50 | 3.1 | 1.6 | 1.6 | 25 | 3.1
11 | CC(=O)NCC(=O)Nc1ccc(-c2ncc(C(=O)N[C@@H](C(=O)N[C@@H]3C(=O)N4[C@@H]3SC(C)(C)[C@@H]4C(=O)O)c3ccc(O)cc3)c(O)n2)cc1 [N-Acetyl Glycyl] | 6.3 | 50 | 1.6 | 1.6 | 6.3 | 6.3 | 0.8
12 | CC(=O)NCCCCC(NC(C)=O)C(=O)Nc1ccc(-c2ncc(C(=O)N[C@@H](C(=O)N[C@@H]3C(=O)N4[C@@H]3SC(C)(C)[C@@H]4C(=O)O)c3ccc(O)cc3)c(O)n2)cc1 (mixture of isomers) [N,N'-Diacetyl-DL-Lysyl, N-[2-[4-(N,N'-Diacetyl-DL-lysylamino)phenyl]-4-hydroxy-5-pyrimidinylcarbonyl]amoxicillin] | 25 | > 50 | 6.3 | 1.6 | 3.1 | 50 | 1.6
13 | CSCCC(NC(C)=O)C(=O)Nc1ccc(-c2ncc(C(=O)N[C@@H](C(=O)N[C@@H]3C(=O)N4[C@@H]3SC(C)(C)[C@@H]4C(=O)O)c3ccc(O)cc3)c(O)n2)cc1 (mixture of isomers) [N-Acetyl-DL-Methionyl, N-[2-[4-(N-acetyl-DL-methionylamino)phenyl]-4-hydroxy-5-pyrimidinylcarbonyl]amoxicillin] | 12.5 | 50 | 3.1 | 1.6 | 1.6 | 12.5 | 1.6
14 | CC(=O)N1CC(O)C[C@H]1C(=O)Nc1ccc(-c2ncc(C(=O)N[C@@H](C(=O)N[C@@H]3C(=O)N4[C@@H]3SC(C)(C)[C@@H]4C(=O)O)c3ccc(O)cc3)c(O)n2)cc1 (stereo partly drawn) [N-Acetyl-L-Hydroxyprolyl, N-[2-[4-(N-Acetyl-L-hydroxyprolylamino)phenyl]-4-hydroxy-5-pyrimidinylcarbonyl]amoxicillin] | 12.5 | 50 | 3.1 | 1.6 | 1.6 | 50 | 0.8
15 | CC(=O)NC(C)C(=O)Nc1ccc(-c2ncc(C(=O)N[C@@H](C(=O)N[C@@H]3C(=O)N4[C@@H]3SC(C)(C)[C@@H]4C(=O)O)c3ccc(O)cc3)c(O)n2)cc1 (mixture of isomers) [N-Acetyl-DL-Alanyl, N-[2-[4-(N-Acetyl-DL-alanylamino)phenyl]-4-hydroxy-5-pyrimidinyl-carbonyl]amoxicillin] | 6.3 | 25 | 0.8 | 1.6 | 1.6 | 6.3 | 0.2
16 | CC(=O)N[C@@H](C)C(=O)Nc1ccc(-c2ncc(C(=O)N[C@@H](C(=O)N[C@@H]3C(=O)N4[C@@H]3SC(C)(C)[C@@H]4C(=O)O)c3ccc(O)cc3)c(O)n2)cc1 [N-Acetyl-L-Alanyl, N-[2-[4-(N-acetyl-L-alanylamino)phenyl]-4-hydroxy-5-pyrimidinylcarbonyl]amoxicillin] | 6.3 | 50 | 0.8 | 1.6 | 0.8 | 12.5 | 0.4
